Measurements from patent publication US7563567B1, “Use of ECIST microarrays in an integrated method for assessing DNA methylation, gene expression and histone acetylation” (The Curators of the Univeristy of Missouri of Columbia, priority 2002, dated 2009).

What was measured:
MDA-MB-231 cells [1] = assay: ECIST expression microarray, deoxyC-treated vs untreated cells; type: cell-based, human
MDA-MB-231 cells [2] = assay: RT-PCR verification of ECIST loci responsive to demethylation; type: cell-based, human
CP70 cells [3] = assay: Expression microarray analysis (ECIST panel, triple analysis); type: cell-based, human; conditions: for number of Group 1 (hypermethylated) loci with increased expression: FIG. 20D; for percent of ECIST loci up-regulated 4-fold or greater / total number of ECISTs up-regulated 4-fold or greater: of 1507 loci, DAC 0.5 μM 4 days, TSA 0.5 μM 12 h
CP70 cells [4] = assay: Semi-quantitative RT-PCR; type: cell-based, human; conditions: for HSPA.2 expression (RT-PCR): FIG. 21 row 1, no expression in untreated cells; for expression of eight Group 2 loci (RT-PCR): FIGS. 22A, 22B, unmethylated loci
BIK gene = conditions: cited from earlier work
[5] = 0.75 μM, 4 days, among 1,162 ECISTs
[6] = average normalized ratio, 0.75 μM treated vs untreated

Compound: Nc1ncn([C@H]2C[C@H](O)[C@@H](CO)O2)c(=O)n1 [DAC, 5-aza-2′-deoxycytidine]
- number of hypermethylated ECIST loci whose transcripts can be reactivated (MDA-MB-231 cells [1]; 0.75 μM): 30
- number of hypermethylated ECIST loci whose transcripts could not be reactivated (or up-regulated) (MDA-MB-231 cells [1]; 0.75 μM): 189
- number of loci up-regulated in response to demethylation but not associated with CpG island hypermethylation (MDA-MB-231 cells [1]; 0.75 μM): 96
- down-regulated ECIST loci (SAM analysis) (MDA-MB-231 cells [1]; [5]): No down-regulated loci were identified
- number of statistically significant up-regulated ECIST loci (SAM, false-positive rate 1%) (MDA-MB-231 cells [1]; [5]): 126
- Cy5/Cy3 Expression, CpG5B6 (CYP27B1) (MDA-MB-231 cells [1]; [6]): 2.7
- Cy5/Cy3 Expression, CpG6B6 (dJ631M13.5) (MDA-MB-231 cells [1]; [6]): 2.6
- Cy5/Cy3 Expression, CpG15E2 (MDA-MB-231 cells [1]; [6]): 3.3
- Cy5/Cy3 Expression, CpG21G11 (MDA-MB-231 cells [1]; [6]): 2.9
- Cy5/Cy3 Expression, CpG32H12 (MDA-MB-231 cells [1]; [6]): 2.6
- Cy5/Cy3 Expression, CpG65A1 (TNS) (MDA-MB-231 cells [1]; [6]): 4.3
- Cy5/Cy3 Expression, CpG65C10 (TBX4) (MDA-MB-231 cells [1]; [6]): 4.7
- Cy5/Cy3 Expression, DL2F9 (ERCC-1) (MDA-MB-231 cells [1]; [6]): 3.8
- Cy5/Cy3 Expression, MP1F6 (LOC84661) (MDA-MB-231 cells [1]; [6]): 2.1
- Cy5/Cy3 Expression, MP2F1 (H4FJ) (MDA-MB-231 cells [1]; [6]): 3.2
- Cy5/Cy3 Expression, MP2F10 (MDA-MB-231 cells [1]; [6]): 3.2
- Cy5/Cy3 Expression, PY1H8 (PSMB4) (MDA-MB-231 cells [1]; [6]): 2.1
- Cy5/Cy3 Expression, PY2F1 (FLJ10466) (MDA-MB-231 cells [1]; [6]): 3.2
- Cy5/Cy3 Expression, PY3D3 (EST AI023535) (MDA-MB-231 cells [1]; [6]): 2.4
- Cy5/Cy3 Expression, PY3D6 (EST BI518683) (MDA-MB-231 cells [1]; [6]): 2.0
- Cy5/Cy3 Expression, PY3F2 (HSRN04) (MDA-MB-231 cells [1]; [6]): 2.0
- Cy5/Cy3 Expression, SC2C3 (EST BE502068) (MDA-MB-231 cells [1]; [6]): 4.9
- Cy5/Cy3 Expression, SC8F2 (RPS16) (MDA-MB-231 cells [1]; [6]): 2.0
- Cy5/Cy3 Expression, SC12A2 (SAAS) (MDA-MB-231 cells [1]; [6]): 2.2
- Cy5/Cy3 Expression, SC13D6 (EST183864) (MDA-MB-231 cells [1]; [6]): 2.1
- Cy5/Cy3 Expression, SC15E7 (MDA-MB-231 cells [1]; [6]): 4.0
- Cy5/Cy3 Expression, SC15H6 (H2BFR) (MDA-MB-231 cells [1]; [6]): 2.6
- Cy5/Cy3 Expression, SC19F1 (EST BE838797) (MDA-MB-231 cells [1]; [6]): 2.7
- Cy5/Cy3 Expression, SC20G3 (HOXD3) (MDA-MB-231 cells [1]; [6]): 2.3
- Cy5/Cy3 Expression, SC21A8 (U3B2) (MDA-MB-231 cells [1]; [6]): 3.2
- Cy5/Cy3 Expression, SC21G11 (HSPA2) (MDA-MB-231 cells [1]; [6]): 5.4
- Cy5/Cy3 Expression, SC40C8 (H2BFG) (MDA-MB-231 cells [1]; [6]): 2.7
- Cy5/Cy3 Expression, SC77F6 (TTF-1) (MDA-MB-231 cells [1]; [6]): 3.8
- Cy5/Cy3 Expression, SC87E7 (EST AA365852) (MDA-MB-231 cells [1]; [6]): 2.4
- Cy5/Cy3 Expression, SC89F2 (HAGE) (MDA-MB-231 cells [1]; [6]): 14.6
- expression of CYP27B1, HSPA2, TTF-1, FLJ10466 and EST183864 by RT-PCR (MDA-MB-231 cells [2]; 0.75 μM treated vs untreated, FIG. 17A): reactivated
- expression levels of CpG12F10, MP2A3 and MP3D7 by RT-PCR (MDA-MB-231 cells [2]; treated relative to untreated cells, loci not hypermethylated, FIG. 17B): increased
- expression of Group 2a genes (unmethylated promoters) (CP70 cells [3]): not by DAC alone
- number of Group 1 (hypermethylated) loci with increased expression (CP70 cells [3]): 11
- percent of ECIST loci up-regulated 4-fold or greater (CP70 cells [3]): 1.9%
- total number of ECISTs up-regulated 4-fold or greater (CP70 cells [3]): 29
- HSPA.2 expression (RT-PCR) (CP70 cells [4]): increased
- expression of eight Group 2 loci (RT-PCR) (CP70 cells [4]): Increased expression of some of these loci
- time by which BIK expression returned to control levels (BIK gene; human lung cancer cell line, after treatment): ≤ 72 h
- induction of the apoptosis promoting factor BIK (BIK gene; human lung cancer cell line): early induction

Compound: CC(/C=C/C(=O)NO)=C\[C@@H](C)C(=O)c1ccc(N(C)C)cc1 [TSA, trichostatin A]
- expression of Group 2a genes (unmethylated promoters) (CP70 cells [3]): increased expression
- number of Group 1 (hypermethylated) loci with increased expression (CP70 cells [3]): No significant change in expression
- percent of ECIST loci up-regulated 4-fold or greater (CP70 cells [3]): 1.1%
- total number of ECISTs up-regulated 4-fold or greater (CP70 cells [3]): 17
- HSPA.2 expression (RT-PCR) (CP70 cells [4]): remained unchanged
- expression of eight Group 2 loci (RT-PCR) (CP70 cells [4]): Increased expression of some of these loci
- induction of the BIK gene (BIK gene; Suzuki et al., cell line not stated): induced in a methylation-independent manner
